{
  "source": "patent US20110130421A1",
  "about": "“Methods and Compositions for the Treatment of Chronic Renal Hypertension” (Georgetown University, priority 2009, published 2011)",
  "key": {"[1]": {"tested_on": "chronic 2K,1C Goldblatt rats", "assay": "Acute interventions in anesthetized chronic 2K,1C rats twelve months after clipping: MAP, cortical blood flow and renal pO2 of the clipped kidney", "format": "in vivo, Sprague-Dawley rats", "method": "(§1) As described in Welch et al., Hypertension, 41:692-696 (2003) and Palm et al., Hypertension, 51:345-351 (2008), young male Sprague-Dawley rats (80-100 g) were anesthetized with isoflurane (0.5-1.5%). A silver clip (0.2 mm) was placed around the left renal artery (2K,1C). Age-matched rats were used as controls (sham).\n(§2) All rats received hydralazine+hydrochlorothiazide+reserpine (HHR; 30+10+0.2 mg·kg^−1·day^−1) in the drinking water as described in Welch et al., Kidney Int., 63:202-208 (2003) in order to maximize survival of the clipped rats. The HHR treatment was discontinued 14 days prior to undergoing the protocol described hereinafter.\n(§3) Twelve months after clipping, all rats were anesthetized with Inactin (100 mg·kg^−1 i.p.; Sigma-Aldrich, St. Louis, Mo.), and an endotracheal tube was inserted for spontaneous respiration. Rats were prepared according to the protocol described in Palm et al., Hypertension, 51:345-351 (2008). Briefly, the left femoral artery was catheterized for monitoring mean arterial blood pressure (MAP) and the left femoral vein for infusion of saline (5 ml·kg bw^−1·h^−1). The left kidney was immobilized in a plastic cup while renal cortical pO2 and cortical blood flow (CBF) were measured with O2 microelectrodes (Unisense, Aarhus, Denmark) and laser-Doppler needle probes (Transonic Systems Inc, Ithaca, N.Y.) as described in Palm et al., Diabetologia, 46:1153-1160 (2003); Palm et al., Hypertension, 51:345-351 (2008); and Liss et al., Pflügers Arch., 434:705-711 (1997).\nMeasurements in 2K,1C rats were made before and after injections of PD-123,319 (1 mg·kg bw^−1 bolus+1 mg·kg bw^−1·h^−1; Sigma Aldrich) followed 30 minutes later by either enalaprilat (0.3 mg·kg bw^−1 bolus+0.3 mg·kg bw^−l·h^−1; Novaplus 1.25 mg·m^−1; Baxter Healthcare Corporation, Deerfield, Ill.) or tempol (174 μmmol·kg bw^−1 bolus+174 μmmol·kg bw^−1·h^−1; Sigma Aldrich) followed 30 minutes later by enalaprilat or candesartan (1 mg·kg bw^−1 bolus+1 mg·kg bw^−1·h^−1; provided by Astra Zeneca, Södertälje Sweden) followed after 30 minutes by enalaprilat. […] See e.g., Duke et al., Br. J. Pharmacol., 144:486-492 (2005).\nThe data in Example 1 was analyzed using ANOVA for multiple data sets and Student's t-test for paired comparisons. When appropriate, this was followed by Dunnett's post hoc. […] The Mann-Whitney test was used for Western blot densitometry data. For all comparisons, p<0.05 was considered statistically significant. All values are expressed as mean±SEM."}, "[2]": {"tested_on": "sham rats", "assay": "Acute interventions in anesthetized age-matched sham rats: MAP, cortical blood flow and renal pO2", "format": "in vivo, Sprague-Dawley rats", "method": "as §1, §2\nas §3, with “Rats were prepared according to the protocol described in Palm et al., Hypertension, 51:345-351 (2008). Briefly, the left femoral artery was catheterized for monitoring mean arterial blood pressure (MAP) and the left femoral vein for infusion of saline (5 ml·kg bw^−1·h^−1).” left out, “(1997). […]” for “(1997).”\nThe data in Example 1 was analyzed using ANOVA for multiple data sets and Student's t-test for paired comparisons. […] All values are expressed as mean±SEM."}, "[3]": {"tested_on": "normal rats", "settings": "cited from earlier work"}, "[4]": {"tested_on": "2K,1C Goldblatt rats in the early stages of renal hypertension", "settings": "early stage 2K,1C Goldblatt rats; prolonged administration; cited from earlier work"}, "[5]": {"settings": "reported, in contrast to early stage 2K,1C rats; similar results in a hypercholesterolemic pig model; cited from earlier work"}, "[6]": {"settings": "solutions containing Tempol; cited from earlier work"}, "[7]": {"tested_on": "essential hypertension", "settings": "cited from earlier work"}, "[8]": {"settings": "acute i.v. bolus + infusion of the agent alone"}, "[9]": {"settings": "clipped kidney, agent alone, listed as tempol"}},
  "note": "Entries after “also recorded” stand apart in the source; their conditions may differ.",
  "data": [
    {"smiles": "C[C@H](N[C@@H](CCc1ccccc1)C(=O)O)C(=O)N1CCC[C@H]1C(=O)O", "note": "[enalaprilat, reference compound]", "values": [
      {"measurement": "renal cortical blood flow (CBF)", "setting": "[1]; enalaprilat after tempol", "result": "did not change further"},
      {"measurement": "renal medullary pO2", "setting": "[1]; enalaprilat after tempol", "result": "did not change the medullary pO2 further"},
      {"measurement": "renal cortical blood flow (CBF)", "setting": "[1]; enalaprilat following candesartan", "result": "reduced significantly"},
      {"measurement": "mean arterial blood pressure (MAP)", "setting": "[1]; enalaprilat given 30 minutes after PD-123,319", "result": "did reduce the MAP"},
      {"measurement": "mean arterial blood pressure (MAP)", "setting": "[1]; enalaprilat given 30 minutes after candesartan", "result": "did not produce a further fall in MAP"},
      {"measurement": "mean arterial blood pressure (MAP)", "setting": "[1]; enalaprilat given 30 minutes after tempol", "result": "did not produce a further fall in MAP"},
      {"measurement": "renal cortical pO2", "setting": "[1]; tempol followed by enalaprilat", "result": "not changed significantly"},
      {"measurement": "renal cortical pO2", "setting": "[2]", "result": "increased cortical pO2"}
    ]},
    {"smiles": "Cc1cc(Cn2cnc3c2C[C@@H](C(=O)O)N(C(=O)C(c2ccccc2)c2ccccc2)C3)ccc1N(C)C", "note": "[PD-123,319, reference compound]", "values": [
      {"measurement": "mean arterial blood pressure (MAP)", "setting": "[1]; [8]", "result": "unaffected"},
      {"measurement": "renal cortical blood flow (CBF)", "setting": "[1]; clipped kidney, agent alone", "result": "Neither candesartan nor PD-123,319 alone changed CBF significantly"},
      {"measurement": "mean arterial pressure or kidney function", "setting": "[3]", "result": "has not been found to change mean arterial pressure or kidney function"}
    ]},
    {"smiles": "CC1(C)CC(O)CC(C)(C)N1[O]", "note": "[Tempol, 4-hydroxy-2,2,6,6-tetramethyl-1-piperidine-1-oxyl]", "values": [
      {"measurement": "glomerular filtration rate (GFR)", "setting": "[4]", "result": "improved the glomerular filtration rate (GFR)"},
      {"measurement": "mean arterial pressure (MAP)", "setting": "[4]", "result": "reduced mean arterial pressure (MAP)"},
      {"measurement": "oxygen tension (pO2) of the clipped kidney", "setting": "[4]", "result": "improved oxygen tension (pO2) of the clipped kidney"},
      {"measurement": "renal blood flow", "setting": "[4]", "result": "improved renal blood flow"},
      {"measurement": "renal blood flow, cortical perfusion or GFR", "setting": "[5]", "result": "failed to improve renal blood flow, cortical perfusion or GFR"},
      {"measurement": "stability of solutions left in sunlight", "setting": "[6]", "result": "discolor when left in sunlight"},
      {"measurement": "mean arterial blood pressure (MAP)", "setting": "[1]; [8]", "result": "lowers MAP; also recorded: more effective in lowering MAP"},
      {"measurement": "mean arterial blood pressure (MAP)", "setting": "[1]; acute i.v. bolus + infusion of the agent alone, listed as tempol", "result": "significantly more effective"},
      {"measurement": "renal cortical blood flow (CBF)", "setting": "[1]; clipped kidney, agent alone", "result": "effectively increases both the cortical blood flow and the tissue pO2"},
      {"measurement": "renal cortical pO2", "setting": "[1]; clipped kidney, agent alone", "result": "effectively increases both the cortical blood flow and the tissue pO2"},
      {"measurement": "renal medullary pO2", "setting": "[1]; clipped kidney, agent alone", "result": "effectively increases both the cortical blood flow and the tissue pO2"},
      {"measurement": "renal cortical blood flow (CBF)", "setting": "[1]; [9]", "result": "increased"},
      {"measurement": "renal cortical pO2", "setting": "[1]; [9]", "result": "increased the cortical pO2"},
      {"measurement": "renal medullary pO2", "setting": "[1]; [9]", "result": "increased the medullary pO2"},
      {"measurement": "renal cortical pO2", "setting": "[2]", "result": "not effective"},
      {"measurement": "anti-hypertensive effect", "setting": "[7]", "result": "demonstrated anti-hypertensive effect"}
    ]}
  ]
}
